Data as given in PubChem BioAssay AID330 (DTP/NCI, 2004).
Where “and” joins values, the source holds several entries; their conditions need not be identical. Equal entries are not always repeated. Toxic doses and inconclusive results are not listed.

Tested on: P388 leukemia ip, CD2F1 mice, survival T/C
Test: NCI In Vivo Anticancer Drug Screen. Data for tumor model P388 Leukemia (intraperitoneal) in CD2F1 (CDF1) mice
Conditions: endpoint: median survival time, higher = longer survival
Procedure, shortened: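 Mice carrying the transplanted tumor received test compound or vehicle. Survival was recorded in each group, and the value is the treated-group measurement divided by that of the vehicle-treated control group.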

[1] = dose: 60.0 mg/kg/injection, schedule: Q01DX005 (ip), vehicle: saline with Tween-80
[2] = dose: 120.0 mg/kg/injection, schedule: Q01DX005 (ip), vehicle: saline with Tween-80
[3] = dose: 240.0 mg/kg/injection, schedule: Q01DX005 (ip), vehicle: saline with Tween-80
[4] = dose: 25.0 mg/kg/injection, schedule: Q01DX005 (ip), vehicle: saline with Tween-80
[5] = dose: 50.0 mg/kg/injection, schedule: Q01DX005 (ip), vehicle: saline with Tween-80
[6] = dose: 100.0 mg/kg/injection, schedule: Q01DX005 (ip), vehicle: saline with Tween-80
[7] = dose: 50.0 mg/kg/injection, schedule: Q01DX005 (ip), vehicle: Klucel (hydroxypropylcellulose) (HPC)
[8] = dose: 100.0 mg/kg/injection, schedule: Q01DX005 (ip), vehicle: Klucel (hydroxypropylcellulose) (HPC)
[9] = dose: 200.0 mg/kg/injection, schedule: Q01DX005 (ip), vehicle: Klucel (hydroxypropylcellulose) (HPC)
[10] = dose: 100.0 mg/kg/injection, schedule: Q04DX003 (ip), vehicle: saline with Tween-80
[11] = dose: 25.0 mg/kg/injection, schedule: Q04DX003 (ip), vehicle: saline with Tween-80

N#Cc1ncc(C[n+]2ccccc2)nc1N was tested, and the T/C (dose: 10.0 mg/kg/injection, schedule: Q01DX009 (ip), vehicle: saline) was 109 % of control, the T/C (dose: 20.0 mg/kg/injection, schedule: Q01DX009 (ip), vehicle: saline) was 107 % of control and the T/C (dose: 40.0 mg/kg/injection, schedule: Q01DX009 (ip), vehicle: saline) was 100 % of control.

For C/C=C1/C(=O)O[C@]23C=C[C@@H]4C(C(=O)OC)=CO[C@H](O[C@@H]12)[C@@H]43, the T/C (dose: 1.25 mg/kg/injection, schedule: Q01DX009 (ip), vehicle: Klucel (hydroxypropylcellulose) (HPC)) was 96 % of control, the T/C (dose: 2.5 mg/kg/injection, schedule: Q01DX009 (ip), vehicle: Klucel (hydroxypropylcellulose) (HPC)) was 98 % of control and the T/C (dose: 5.0 mg/kg/injection, schedule: Q01DX009 (ip), vehicle: Klucel (hydroxypropylcellulose) (HPC)) was 102 % of control. The T/C (dose: 10.0 mg/kg/injection, schedule: Q01DX009 (ip), vehicle: Klucel (hydroxypropylcellulose) (HPC)) was 109 % of control.

For COC(=O)c1nnn(-c2cccc(C(F)(F)F)c2)c1N, the T/C [1] was 89 % of control, the T/C [2] was 90 % of control and the T/C [3] was 100 % of control.

In the case of CCOC(=O)C(Cc1ccc(N(CCCl)CCCl)cc1)NC(=O)C(Cc1ccc(N)cc1)NC(C)=O (centres undefined), the T/C (dose: 3.12 mg/kg/injection, schedule: Q01DX005 (ip), vehicle: saline with Tween-80) is reported as 123 % of control, the T/C (dose: 6.25 mg/kg/injection, schedule: Q01DX005 (ip), vehicle: saline with Tween-80) is reported as 159 % of control and the T/C (dose: 12.5 mg/kg/injection, schedule: Q01DX005 (ip), vehicle: saline with Tween-80) is reported as 207 % of control. For the same molecule, the T/C [4] was 298 % of control, the T/C [5] was 104 % of control and 115 % of control and 117 % of control and the T/C [6] was 114 % of control and 120 % of control. For the same molecule, the T/C (dose: 200.0 mg/kg/injection, schedule: Q01DX005 (ip), vehicle: saline with Tween-80) was 122 % of control and the T/C (dose: 400.0 mg/kg/injection, schedule: Q01DX005 (ip), vehicle: saline with Tween-80) was 115 % of control.

For Cc1c2ccncc2c(CO)c2c3ccccc3n(C)c12, the T/C (dose: 5.0 mg/kg/injection, schedule: Q01DX005 (ip), vehicle: saline) was 109 % of control, the T/C (dose: 10.0 mg/kg/injection, schedule: Q01DX005 (ip), vehicle: saline) was 97 % of control and the T/C (dose: 20.0 mg/kg/injection, schedule: Q01DX005 (ip), vehicle: saline) was 97 % of control.

With S=c1cc(-c2ccccc2)ss1 the T/C (dose: 178.0 mg/kg/injection, schedule: Q04DX003 (ip), vehicle: saline with Tween-80) was 102 % of control, the T/C (dose: 266.0 mg/kg/injection, schedule: Q04DX003 (ip), vehicle: saline with Tween-80) was 102 % of control and the T/C (dose: 400.0 mg/kg/injection, schedule: Q04DX003 (ip), vehicle: saline with Tween-80) was 101 % of control. For the same molecule, the T/C (dose: 600.0 mg/kg/injection, schedule: Q04DX003 (ip), vehicle: saline with Tween-80) was 102 % of control.

For CNC(=S)P(c1ccccc1)c1ccccc1, the T/C [7] was 105 % of control, the T/C [8] was 96 % of control and the T/C [9] was 105 % of control.

For OC(CCl)Cn1nnc2c3ccccc3ccc21 (centres undefined), the T/C [4] was 101 % of control, the T/C [5] was 101 % of control and the T/C [6] was 101 % of control. The T/C [10] was 99 % of control and the T/C (dose: 200.0 mg/kg/injection, schedule: Q04DX003 (ip), vehicle: saline with Tween-80) was 94 % of control.

With Nc1nc2nc3c(nc2c(=O)[nH]1)C(=O)N(c1ccc(C(=O)O)cc1)C3 the T/C (dose: 6.25 mg/kg/injection, schedule: Q04DX003 (ip), vehicle: saline with Tween-80) was 111 % of control, the T/C (dose: 12.5 mg/kg/injection, schedule: Q04DX003 (ip), vehicle: saline with Tween-80) was 98 % of control and the T/C [11] was 100 % of control and 103 % of control.

For S=C1CC(N2CCCC2)=Nc2ccccc2N1, the T/C [7] was 100 % of control, the T/C [8] was 90 % of control and the T/C [9] was 95 % of control.

In the case of O=c1[nH]c2cc([N+](=O)[O-])ccc2nc1/C=C(\O)c1ccncc1, the T/C (dose: 60.0 mg/kg/injection, schedule: Q01DX005 (ip), vehicle: Klucel + Tween-80) is reported as 94 % of control, the T/C (dose: 120.0 mg/kg/injection, schedule: Q01DX005 (ip), vehicle: Klucel + Tween-80) is reported as 88 % of control and the T/C (dose: 240.0 mg/kg/injection, schedule: Q01DX005 (ip), vehicle: Klucel + Tween-80) is reported as 100 % of control.

For CC(=O)c1cccc(NC2C(N)C(NC(=O)N(C)C)(C(C)O)C(C)(O)C2(O)COC(=O)c2c(C)cccc2O)c1 (centres undefined), the T/C (dose: 0.5 mg/kg/injection, schedule: Q01DX009 (ip), vehicle: other) was 86 % of control, the T/C (dose: 1.0 mg/kg/injection, schedule: Q01DX009 (ip), vehicle: other) was 153 % of control and the T/C (dose: 1.5 mg/kg/injection, schedule: Q01DX009 (ip), vehicle: acid diluted with saline) was 86 % of control.

In the case of CCCCN=C1Nc2nc(=NCCCC)nc3c(Br)cc(Br)c(n23)N1, the T/C (dose: 0.18 mg/kg/injection, schedule: Q01DX005 (ip), vehicle: Klucel (hydroxypropylcellulose) (HPC)) is reported as 101 % of control, the T/C (dose: 0.37 mg/kg/injection, schedule: Q01DX005 (ip), vehicle: Klucel (hydroxypropylcellulose) (HPC)) is reported as 97 % of control and the T/C (dose: 0.75 mg/kg/injection, schedule: Q01DX005 (ip), vehicle: Klucel (hydroxypropylcellulose) (HPC)) is reported as 94 % of control. For the same molecule, the T/C (dose: 30.0 mg/kg/injection, schedule: Q01DX005 (ip), vehicle: Klucel (hydroxypropylcellulose) (HPC)) was 86 % of control and the T/C (dose: 60.0 mg/kg/injection, schedule: Q01DX005 (ip), vehicle: Klucel (hydroxypropylcellulose) (HPC)) was 87 % of control and 89 % of control.

CC(=O)Nc1ccc(S(=O)(=O)NC2C(O)OC(CO)C(O)C2O)cc1 (centres undefined) was tested, and the T/C (dose: 50.0 mg/kg/injection, schedule: Q01DX005 (ip), vehicle: saline) was 95 % of control, the T/C (dose: 100.0 mg/kg/injection, schedule: Q01DX005 (ip), vehicle: saline) was 105 % of control and the T/C (dose: 200.0 mg/kg/injection, schedule: Q01DX005 (ip), vehicle: saline) was 97 % of control.

In the case of COc1ccc2nc3cc(Cl)ccc3c(Nc3ccc(O)c(CN(CCCl)CCCl)c3)c2c1, the T/C (dose: 0.06 mg/kg/injection, schedule: Q01DX009 (ip), vehicle: saline with Tween-80) is reported as 98 % of control, the T/C (dose: 0.09 mg/kg/injection, schedule: Q01DX009 (ip), vehicle: saline with Tween-80) is reported as 89 % of control and the T/C (dose: 0.44 mg/kg/injection, schedule: Q01DX009 (ip), vehicle: saline) is reported as 150 % of control. The T/C (dose: 0.6 mg/kg/injection, schedule: Q01DX009 (ip), vehicle: saline with Tween-80) was 154 % of control, the T/C (dose: 0.66 mg/kg/injection, schedule: Q01DX009 (ip), vehicle: saline) was 160 % of control and the T/C (dose: 1.0 mg/kg/injection, schedule: Q01DX009 (ip), vehicle: saline) was 155 % of control. The T/C (dose: 1.5 mg/kg/injection, schedule: Q01DX009 (ip), vehicle: saline) was 175 % of control.

For CCOc1c(Cc2ccccc2)c(=O)n2c3ccccc3n(CC)c2c1C#N, the T/C (dose: 7.5 mg/kg/injection, schedule: Q01DX005 (ip), vehicle: saline with Tween-80) was 100 % of control, the T/C (dose: 15.0 mg/kg/injection, schedule: Q01DX005 (ip), vehicle: saline with Tween-80) was 102 % of control and the T/C (dose: 30.0 mg/kg/injection, schedule: Q01DX005 (ip), vehicle: saline with Tween-80) was 101 % of control.

In the case of CC1=C2C(=O)[C@H]3[C@@H](CC=C4C[C@@H](O)CC[C@@]43C)[C@@H]2CC[C@]12O[C@@H]1C[C@H](C)CN[C@H]1[C@H]2C, the T/C (dose: 25.0 mg/kg/injection, schedule: Q01DX009 (ip), vehicle: saline with Tween-80) is reported as 98 % of control, the T/C (dose: 50.0 mg/kg/injection, schedule: Q01DX009 (ip), vehicle: saline with Tween-80) is reported as 92 % of control and the T/C (dose: 100.0 mg/kg/injection, schedule: Q01DX009 (ip), vehicle: saline with Tween-80) is reported as 92 % of control.

With Cc1noc2nccnc12 the T/C [11] was 100 % of control, the T/C (dose: 50.0 mg/kg/injection, schedule: Q04DX003 (ip), vehicle: saline with Tween-80) was 91 % of control and the T/C [10] was 91 % of control.

For CC1(OC(=O)c2ccc([N+](=O)[O-])cc2)CC(C)(C)[N+]([O-])=N1 (centres undefined), the T/C (dose: 12.5 mg/kg/injection, schedule: Q01DX009 (ip), vehicle: other) was 102 % of control, the T/C (dose: 25.0 mg/kg/injection, schedule: Q01DX009 (ip), vehicle: other) was 102 % of control and the T/C (dose: 50.0 mg/kg/injection, schedule: Q01DX009 (ip), vehicle: other) was 109 % of control. The T/C (dose: 100.0 mg/kg/injection, schedule: Q01DX009 (ip), vehicle: other) was 100 % of control and the T/C (dose: 200.0 mg/kg/injection, schedule: Q01DX009 (ip), vehicle: other) was 94 % of control.

COC(=O)/C(C(C)=O)=C(\OC(C)=O)c1ccc(OC)c(OC)c1 was tested, and the T/C [1] was 94 % of control, the T/C [2] was 100 % of control and the T/C [3] was 92 % of control.

In the case of CCCC(C)(C(=O)Nc1ccc2nc(C)cc(N)c2c1)C(=O)Nc1ccc2nc(C)cc(N)c2c1, the T/C [5] is reported as 94 % of control and the T/C [6] is reported as 96 % of control.
